Series [1] can be described thus: log P determined by HPLC analysis. Format: physicochemical. On the procedure: log P*=[…] logarithm to base 10 of the […] partition coefficient, determined by HPLC analysis on 125×4.0 mm Kromasil 120 C 18 (5 μm), using water/acetonitrile as mobile phase; flow rate: 1.5 ml/min.
In series [2] the test system is caterpillars of the cotton bollworm (Heliothis armigera). The series can be described thus: Heliothis armigera test. It counts as in vivo. The note with it: concentration of active compound 0.004%, after 6 days, dipped soybean shoots. As for the experimental part: (§1) Solvent: 7 parts by weight of dimethylformamide
(§2) Emulsifier: 1 part by weight of alkylaryl polyglycol ether
(§3) To produce a suitable preparation of active compound, 1 part by weight of active compound is mixed with the stated amounts of solvent and emulsifier, and the concentrate is diluted with emusifier-containing water to the desired concentration.
Soybean shoots (Glycine max) are treated by being dipped into the preparation of active compound of the desired concentration and are populated with caterpillars of the cotton bollworm (Heliothis armigera) while the leaves are still moist.
(§4) After the desired period of time, the kill in % is determined. 100% means that all caterpillars have been killed; 0% means that none of the caterpillars have been killed.

In series [3] the test system is larvae of the mustard beetle (Phaedon cochleariae). The series can be described thus: Phaedon larvae test. Format: in vivo. To be noted: concentration of active compound 0.004%, after 6 days, dipped cabbage leaves. As for the experimental part:
Phaedon Larvae Test Solvent: 7 parts by weight of dimethylformamide Emulsifier: 1 part by weight of alkylaryl polyglycol ether To produce a suitable preparation of active compound, 1 part by weight of active compound is mixed with the stated amounts of solvent and emulsifier, and the concentrate is diluted with emusifier-containing water to the desired concentration. Cabbage leaves (Brassica oleracea) are treated by being dipped into the preparation of active compound of the desired concentration and are populated with larvae of the mustard beetle (Phaedon cochleariae) while the leaves are still moist.

Series [4] relates to caterpillars of the diamond-back moth (Plutella xylostella). Briefly: Plutella test. Format: in vivo. The note with it: concentration of active compound 0.004%, after 6 days, dipped cabbage leaves. As for the experimental part:
as §1, §2, §3
Cabbage leaves (Brassica oleracea) are treated by being dipped into the preparation of active compound of the desired concentration and are populated with caterpillars of the diamond-back moth (Plutella xylostella) while the leaves are still moist.
as §4

Series [5] has as its system caterpillars of the army-worm (Spodoptera frugiperda). Briefly: Spodoptera frugiperda test. To be noted: concentration of active compound at most 0.1%, after 6 days, dipped cabbage leaves. It counts as in vivo. As for the experimental part: Spodoptera frugiperda Test
as §1, §2, §3
Cabbage leaves (Brassica oleracea) are treated by being dipped into the preparation of active compound of the desired concentration and are populated with caterpillars of the army-worm (Spodoptera frugiperda) while the leaves are still moist.
as §4

The test system of series [6] is all stages of the greenhouse red spider mite (Tetranychus urticae). The series can be described thus: Tetranychus test (OP-resistant/dip treatment). Format: in vivo. The note with it: concentration of active compound at most 0.1%, after 6 days, dipped bean plants. On the procedure: Tetranychus Test (OP-resistant/dip Treatment)
as §1, §2
To produce a suitable preparation of active compound, 1 part by weight of active compound is mixed with the stated amounts of solvent and emulsifier, and the concentrate is diluted with emulsifier-containing water to the desired concentration.
Bean plants (Phaseolus vulgaris) which are heavily infested by all stages of the greenhouse red spider mite (Tetranychus urticae) are dipped into a preparation of the active compound of the desired concentration.
After the desired period of time, the kill in % is determined. 100% means that all spider mites have been killed; 0% means that none of the spider mites have been killed.

The mark [7] stands for this setting: pH 2.3, HPLC, read-out: log P (pH 2.3).

Molecules are shown by their SMILES. Where two headings read alike, the source gives them in different places.

As to `O=C(c1ccccc1Cl)C1CC(c2ccccc2)N(C(=O)c2ccccc2Cl)C1=O` (stereo not drawn) [Example G(II)-20, 1,3-(2-chlorobenzoyl)-5-phenyl-pyrrolidin-2-one], in series [1] (pH 2.5, read-out: log P (pH 2.5)), the chromatographic logP is 3.91.

As for `FC(F)(F)Oc1ccc(-c2ccc(C3CCC(c4ccccc4Cl)=N3)cc2)cc1` (stereo not drawn) [Example I-7], the kill in % in series [2], in series [3], in series [4], in series [5] and in series [6] was 100% throughout.

`Clc1ccccc1C1=NC(c2ccccc2)CC1` (stereo not drawn) [Example I-20] displayed a kill in % in series [6] of 100%. Further, the “log P* (pH 7.5)” value in series [1] (pH 7.5, HPLC, Kromasil 120 C 18, water/acetonitrile) is reported as 3.6 l.

As for `FC(F)C(F)(F)Oc1ccc(-c2ccc(C3CCC(c4ccccc4Cl)=N3)cc2)cc1` (stereo not drawn) [Example I-43], in series [1] (setting [7]), the chromatographic logP is 4.01.

Consider `CC(C)(C)OC(=O)N1C(=O)CCC1c1ccc(-c2ccc(OC(F)(F)C(F)F)cc2)cc1` (stereo not drawn) [Example IX-43], for which the chromatographic logP in series [1] (setting [7]) was 3.96.

Consider `CC(C)(C)OC(=O)NC(CCC(=O)c1ccccc1Cl)c1ccc(-c2ccc(OC(F)(F)C(F)F)cc2)cc1` (stereo not drawn) [Example VIII-43], for which the chromatographic logP in series [1] (setting [7]) worked out at 4.94.

For `O=C1CCC(c2ccc(-c3ccc(OC(F)(F)C(F)F)cc3)cc2)N1` (stereo not drawn) [Example XI-43], the chromatographic logP in series [1] (setting [7]) was 2.79.

The values are drawn from patent US6489490B1, “2-(2-chlorophenyl)-3,4-dihydro-2h-pyrrol derivatives” (Bayer Aktiengesellschaft, priority 1998, dated 2002).
